Key:
[1] = tested on: THP-1 cells; test: TNFα generation assay; type: cell-based, human; conditions: Homo sapiens, THP-1, THP-1 cells; Table 22; read-out: IC50 in TNFα generation assay
Summary of the method: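 Secreted TNFα in supernatant quantified by ELISA or AlphaLISA after 7 h culture on human IgG-coated wells (10 μg/ml coating). Cells were IFN-γ-differentiated THP-1 (10 ng/ml, 2 days), exposed to compound for 30 min at room temperature before plating.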

[2] = target: T1, glutathione S-transferase (GST)-fused full-length human Syk protein (Homo sapiens, UniProt P43405); test: Syk enzyme assay; type: biochemical; conditions: Syk enzyme assay, Test Example 1; read-out: IC50 of Syk-inhibitory activity
T1 construct: (GST)-fused full-length human Syk protein; GST (glutathione S-transferase); purchased Carna Biosciences
Summary of the method: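 GST-tagged full-length human Syk (baculovirus) preincubated with compound 15 min at room temperature (pH 7.0, 10 mM MgCl2), then reacted 40 min with 0.4 μM biotinylated peptide substrate and 27 μM ATP (final). Phosphorylation read by HTRF (615/665 nm) after EDTA stop; IC50 reported.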

| IC50 [1] [µM] | IC50 [2] [µM] | Compound |
| --- | --- | --- |
| 0.13 to 0.2 | < 0.01 | CCC[C@@H](Nc1nc(Nc2cncc(-c3cccc(OC)c3)c2)c(C(N)=O)cc1F)[C@H](C)N [Example 006-284, 6-(((2S,3R)-2-aminohexan-3-yl)amino)-5-fluoro-2-((5-(3-methoxyphenyl)pyridin-3-yl)amino)nicotinamide] |
| 0.065 to 0.13 | < 0.01 | CCC[C@@H](Nc1nc(Nc2cncc(-c3ccc(OC)cc3)c2)c(C(N)=O)cc1F)[C@H](C)N [Example 006-285, 6-(((2S,3R)-2-aminohexan-3-yl)amino)-5-fluoro-2-((5-(4-methoxyphenyl)pyridin-3-yl)amino)nicotinamide] |
| < 0.065 | < 0.01 | CCC[C@@H](Nc1nc(Nc2cncc(-c3cccc(OC)c3F)c2)c(C(N)=O)cc1F)[C@H](C)N [Example 006-286, 6-(((2S,3R)-2-aminohexan-3-yl)amino)-5-fluoro-2-((5-(2-fluoro-3-methoxyphenyl)pyridin-3-yl)amino)nicotinamide] |
| 0.065 to 0.13 | < 0.01 | CCC[C@@H](Nc1nc(Nc2cncc(-c3ccc(OC)cc3F)c2)c(C(N)=O)cc1F)[C@H](C)N [Example 006-287, 6-(((2S,3R)-2-aminohexan-3-yl)amino)-5-fluoro-2-((5-(2-fluoro-4-methoxyphenyl)pyridin-3-yl)amino)nicotinamide] |
| 0.13 to 0.2 | < 0.01 | CCC[C@@H](Nc1nc(Nc2cncc(-c3cc(OC)ccc3F)c2)c(C(N)=O)cc1F)[C@H](C)N [Example 006-288] |
| < 0.065 | < 0.01 | CCC[C@@H](Nc1nc(Nc2ccnc(-c3cccc(OC)c3F)c2)c(C(N)=O)cc1F)[C@H](C)N [Example 006-289, 6-(((2S,3R)-2-aminohexan-3-yl)amino)-5-fluoro-2-((2-(2-fluoro-3-methoxyphenyl)pyridin-4-yl)amino)nicotinamide] |
| < 0.065 | < 0.01 | CCC[C@@H](Nc1nc(Nc2ccnc(-c3cc(OC)ccc3F)c2)c(C(N)=O)cc1F)[C@H](C)N [Example 006-290, 6-(((2S,3R)-2-aminohexan-3-yl)amino)-5-fluoro-2-((2-(2-fluoro-5-methoxyphenyl)pyridin-4-yl)amino)nicotinamide] |
| 0.13 to 0.2 | 0.01 to 0.05 | COc1ccc(-c2cncc(Nc3nc(N[C@@H](CN)CC(C)C)c(F)cc3C(N)=O)c2)cc1 [Example 006-291, (R)-6-((1-amino-4-methylpentan-2-yl)amino)-5-fluoro-2-((5-(4-methoxyphenyl)pyridin-3-yl)amino)nicotinamide] |
| 0.065 to 0.13 | < 0.01 | CCCC[C@H](CN)Nc1nc(Nc2cnc3cc(OC)ccc3c2)c(C(N)=O)cc1F [Example 006-293, (R)-6-((1-aminohexan-2-yl)amino)-5-fluoro-2-((7-methoxyquinolin-3-yl)amino)nicotinamide] |
| 0.065 to 0.13 | 0.01 to 0.05 | CCCC[C@H](CN)Nc1nc(Nc2cncc(-n3cccn3)c2)c(C(N)=O)cc1F [Example 006-294, (R)-2-((5-(1H-pyrazol-1-yl)pyridin-3-yl)amino)-6-((1-aminohexan-2-yl)amino)-5-fluoronicotinamide] |
| 0.13 to 0.2 | 0.01 to 0.05 | CCCC[C@H](CN)Nc1nc(Nc2cncc(-c3ccccc3)c2)c(C(N)=O)cc1F [Example 006-295, (R)-6-((1-aminohexan-2-yl)amino)-5-fluoro-2-((5-phenylpyridin-3-yl)amino)nicotinamide] |
| 0.065 to 0.13 | < 0.01 | CCC[C@@H](Nc1nc(Nc2cnc(C)c(C)c2)c(C(N)=O)cc1F)[C@H](C)N [Example 006-296, 6-(((2S,3R)-2-aminohexan-3-yl)amino)-2-((5,6-dimethylpyridin-3-yl)amino)-5-fluoronicotinamide] |
| 0.065 to 0.13 | < 0.01 | CCC[C@@H](Nc1nc(Nc2cncc(Cl)c2)c(C(N)=O)cc1F)[C@H](C)N [Example 006-297, 6-(((2S,3R)-2-aminohexan-3-yl)amino)-2-((5-chloropyridin-3-yl)amino)-5-fluoronicotinamide] |
| < 0.065 | < 0.01 | CCC[C@@H](Nc1nc(Nc2cncc(-n3nccn3)c2)c(C(N)=O)cc1F)[C@H](C)N [Example 006-298, 2-((5-(2H-1,2,3-triazol-2-yl)pyridin-3-yl)amino)-6-(((2S,3R)-2-aminohexan-3-yl)amino)-5-fluoronicotinamide] |
| < 0.065 | < 0.01 | CCC[C@@H](Nc1nc(Nc2ccnc(-n3ccnn3)c2)c(C(N)=O)cc1F)[C@H](C)N [Example 006-299, 2-((2-(1H-1,2,3-triazol-1-yl)pyridin-4-yl)amino)-6-(((2S,3R)-2-aminohexan-3-yl)amino)-5-fluoronicotinamide] |
| < 0.065 | < 0.01 | CCC[C@@H](Nc1nc(Nc2ccnc(-n3cncn3)c2)c(C(N)=O)cc1F)[C@H](C)N [Example 006-300, 2-((2-(1H-1,2,4-triazol-1-yl)pyridin-4-yl)amino)-6-(((2S,3R)-2-aminohexan-3-yl)amino)-5-fluoronicotinamide] |
| 0.13 to 0.2 | 0.01 to 0.05 | CCC[C@@H](Nc1nc(Nc2ccc(C)nc2)c(C(N)=O)cc1F)[C@H](C)N [Example 006-302, 6-(((2S,3R)-2-aminohexan-3-yl)amino)-5-fluoro-2-((6-methylpyridin-3-yl)amino)nicotinamide] |
| 0.13 to 0.2 | < 0.01 | CCC[C@@H](Nc1nc(Nc2ccc3nc(OCCOC)ccc3c2)c(C(N)=O)cc1F)[C@H](C)N [Example 006-303, 6-(((2S,3R)-2-aminohexan-3-yl)amino)-5-fluoro-2-((2-(2-methoxyethoxy)quinolin-6-yl)amino)nicotinamide] |
| 0.13 to 0.2 | < 0.01 | NCC(CCC(F)(F)F)Nc1nc(Nc2ccc3ncccc3c2)c(C(N)=O)cc1F (stereo not drawn) [Example 006-304, 6-((1-amino-5,5,5-trifluoropentan-2-yl)amino)-5-fluoro-2-((quinolin-6-yl)amino)nicotinamide] |
| 0.065 to 0.13 | < 0.01 | CCC[C@@H](Nc1nc(Nc2ccc3nc(C)c(C)nc3c2)c(C(N)=O)cc1F)[C@H](C)N [Example 006-306, 6-(((2S,3R)-2-aminohexan-3-yl)amino)-2-((2,3-dimethylquinoxalin-6-yl)amino)-5-fluoronicotinamide] |
| 0.065 to 0.13 | < 0.01 | CCC[C@@H](Nc1nc(Nc2cccc3ncccc23)c(C(N)=O)cc1F)[C@H](C)N [Example 006-307, 6-(((2S,3R)-2-aminohexan-3-yl)amino)-5-fluoro-2-(quinolin-5-ylamino)nicotinamide] |
| 0.065 to 0.13 | < 0.01 | CCC[C@@H](Nc1nc(Nc2ccc3scnc3c2)c(C(N)=O)cc1F)[C@H](C)N [Example 006-308, 6-(((2S,3R)-2-aminohexan-3-yl)amino)-2-(benzo[d]thiazol-5-ylamino)-5-fluoronicotinamide] |
| 0.065 to 0.13 | < 0.01 | CCC[C@@H](Nc1nc(Nc2ccnc(OCC)c2)c(C(N)=O)cc1F)[C@H](C)N [Example 006-309, 6-(((2S,3R)-2-aminohexan-3-yl)amino)-2-((2-ethoxypyridin-4-yl)amino)-5-fluoronicotinamide] |
| 0.065 to 0.13 | < 0.01 | CCC[C@@H](Nc1nc(Nc2ccnc(OCCOC)c2)c(C(N)=O)cc1F)[C@H](C)N [Example 006-310, 6-(((2S,3R)-2-aminohexan-3-yl)amino)-5-fluoro-2-((2-(2-methoxyethoxy)pyridin-4-yl)amino)nicotinamide] |
| 0.065 to 0.13 | < 0.01 | CCC[C@@H](Nc1nc(Nc2cncc(C)c2)c(C(N)=O)cc1F)[C@H](C)N [Example 006-312, 6-(((2S,3R)-2-aminohexan-3-yl)amino)-5-fluoro-2-((5-methylpyridin-3-yl)amino)nicotinamide] |
| 0.065 to 0.13 | < 0.01 | CC[C@@H](Nc1nc(Nc2ccc3c(cnn3CCOC)c2)c(C(N)=O)cc1F)[C@H](C)N [Example 006-313, 6-(((2S,3R)-2-aminopentan-3-yl)amino)-5-fluoro-2-((1-(2-methoxyethyl)-1H-indazol-5-yl)amino)nicotinamide] |
| < 0.065 | < 0.01 | CCC[C@@H](Nc1nc(Nc2ccc3c(cnn3CCOC)c2)c(C(N)=O)cc1F)[C@H](C)N [Example 006-314, 6-(((2S,3R)-2-aminohexan-3-yl)amino)-5-fluoro-2-((1-(2-methoxyethyl)-1H-indazol-5-yl)amino)nicotinamide] |
| < 0.065 | < 0.01 | CC[C@@H](Nc1nc(Nc2ccnc(-c3cc(OC)ccc3F)c2)c(C(N)=O)cc1F)[C@H](C)N [Example 006-315, 6-(((2S,3R)-2-aminopentan-3-yl)amino)-5-fluoro-2-((2-(2-fluoro-5-methoxyphenyl)pyridin-4-yl)amino)nicotinamide] |
| 0.13 to 0.2 | 0.01 to 0.05 | CC(C)C[C@H](CN)Nc1nc(Nc2cncc(-c3ccccc3F)c2)c(C(N)=O)cc1F [Example 006-316, (R)-6-((1-amino-4-methylpentan-2-yl)amino)-5-fluoro-2-((5-(2-fluorophenyl)pyridin-3-yl)amino)nicotinamide] |
| 0.13 to 0.2 | < 0.01 | COc1cccc(-c2cncc(Nc3nc(N[C@@H](CN)CC(C)C)c(F)cc3C(N)=O)c2)c1 [Example 006-317, (R)-6-((1-amino-4-methylpentan-2-yl)amino)-5-fluoro-2-((5-(3-methoxyphenyl)pyridin-3-yl)amino)nicotinamide] |
